Converted amounts (≈) assume the structure as drawn. Where a name gives a salt, the structure may show the parent alone.
Tests used:
[1] = test system: E. coli 1346; test: Antibacterial activity of the products per se, serial dilution method in liquid medium (Test E); assay type: cell-based; conditions: product per se; for MIC E. coli 1346: Table 3, liquid medium; for MIC E. coli 1346 (E): Table 4, test E
Excerpt: The antibacterial activity of the products per se is illustrated on the basis of Table 3 hereinafter, the minimum inhibitory concentration […] in vitro against E. coli 1346 being determined using the serial dilution method in liquid medium: […]

[2] = test system: Citrobacter freundii 1982; test: MIC in vitro of a 1:4 combination of ceftriaxone with a compound of formula I (Test D); assay type: cell-based; conditions: 1:4 combination of ceftriaxone with the compound; for MIC C. freundii 1982: Table 2; for MIC C. freundii 1982 (D): Table 4, test D
Protocol: The minimum inhibitory concentration in vitro ([…]) of a 1:4 combination of ceftriaxone with a compound of formula I against Citrobacter freundii 1982 was measured and compiled in Table 2 hereinafter.

Row | Structure (SMILES) | MIC E. coli 1346 [1] | MIC C. freundii 1982 [2] | MIC E. coli 1346 (E) [1] | MIC C. freundii 1982 (D) [2]
1 | Cn1nnnc1SCC(=O)N1C[C@H]2CC(OS(C)(=O)=O)=C(C(=O)O)N3C(=O)[C@@H]1[C@@H]23 [11(b), (1aS,3aR,6bR)-5-Methylsulphonyloxy-2-(1-methyl-1H-tetrazol-5-ylsulphanylacetyl)-1-oxo-1a,2,3,3a,4,6b-hexahydro-1H-2,6a-diazacyclobut[cd]indene-6-carboxylic acid sodium salt] | 16 µg/mL | 0.5 µg/mL | – | –
2 | N#C/C=C/C1=C(C(=O)O)N2C(=O)[C@H]3NC[C@@H](C1)[C@H]32 [48(b), (E)-(1aS,3aR,6bR)-5-(2-Cyanovinyl)-1-oxo-1a,2,3,3a,4,6b-hexahydro-1H-2,6a-diazacyclobut[cd]indene-6-carboxylic acid trifluoroacetate] | – | – | 4 µg/mL | 2 µg/mL
3 | CNC(=O)Cn1nnnc1SCC1=C(C(=O)O)N2C(=O)[C@H]3NC[C@@H](O1)[C@H]32 [Example 29(k), (1aS,3aR,6bS)-5-(1-Methylcarbamoylmethyl-1H-tetrazol-5-ylsulphanylmethyl)-1-oxo-1,1a,2,3,3a,6 b-hexahydro-4-oxa-2,6a-diazacyclobut[cd]indene-6-carboxylic acid] | – | – | 32 µg/mL (≈ 83.9 µM) | 8 µg/mL
4 | COC(=O)CC1=C(C(=O)O)N2C(=O)[C@H]3NC[C@@H](C1)[C@H]32 [Example 12(b), (1aS,3aR,6bR)-5-Methoxycarbonylmethyl-1-oxo-1a,2,3,3a,4,6b-hexahydro-1H-2,6a-diazacyclobut[cd]indene-6-carboxylic acid trifluoroacetate] | 8 µg/mL | 4 µg/mL | – | –
5 | Cc1nnc(SCC2=C(C(=O)O)N3C(=O)[C@@H]4[C@H]3[C@@H](CN4C(=O)CSc3nnnn3C)O2)s1 [Example 34, (1aS,3aR,6bS)-2-(1-Methyl-1H-tetrazol-5-ylsulphanylacetyl)-5-(5-methyl-1,3,4-thiadiazol-2-ylsulphanylmethyl)-1-oxo-1,1a,2,3,3a,6b-hexahydro-4-oxa-2,6a-diazacyclobut[cd]indene-6-carboxylic acid] | – | – | 8 µg/mL (≈ 16.1 µM) | 1 µg/mL
6 | Cn1nnnc1SCC1=C(C(=O)O)N2C(=O)[C@@H]3[C@H]2[C@@H](CN3C(=O)CSc2nnc(N)s2)S1 [42(c), (1aS,3aR,6bS)-2-(2-Amino-1,3,4-thiadiazol-5-ylsulphanylacetyl)-5-(1-methyl-1H-tetrazol-5-ylsulphanylmethyl)-1-oxo-4-thia-1,1a,2,3,3a,6b-hexahydro-2,6a-diazacyclobut[cd]indene-6-carboxylic acid sodium salt] | – | – | 16 µg/mL | 0.2 µg/mL
7 | O=C(O)C1=C(CSc2ncccn2)C[C@@H]2CN(C(=O)C(F)(F)F)[C@@H]3C(=O)N1[C@H]23 [72(b), (1aS,3aR,6bR)-1-Oxo-5-(pyrimidin-2-ylsulphanylmethyl)-2-trifluoroacetyl-1a,2,3,3a,4,6b-hexahydro-1H-2,6a-diazacyclobut[cd]indene-6-carboxylic acid sodium salt] | – | – | 4 µg/mL | 2 µg/mL
8 | CC(=O)N1C[C@H]2SC(CSc3ccncc3)=C(C(=O)O)N3C(=O)[C@@H]1[C@@H]23 [42(b), (1aS,3aR,6bS)-2-Acetyl-1-oxo-5-(pyridin-4-ylsulphanylmethyl)-4-thia-1,1a,2,3,3a,6b-hexahydro-2,6a-diazacyclobut[cd]indene-6-carboxylic acid sodium salt] | – | – | 0.5 µg/mL | 2 µg/mL
9 | CS(=O)(=O)OC1=C(C(=O)O)N2C(=O)[C@@H]3[C@H]2[C@H](C1)CN3C(=O)NCc1cccs1 [9(c), (1aS,3aR,6bR)-5-Methylsulphonyloxy-2-(thien-2-ylmethylcarbamoyl)-1-oxo-1a,2,3,3a,4,6b-hexahydro-1H-2,6a-diazacyclobut[cd]indene-6-carboxylic acid sodium salt] | 8 µg/mL | 1 µg/mL | – | –
10 | O=C(O)C1=C(CSc2ncccn2)C[C@@H]2CN[C@@H]3C(=O)N1[C@H]23 [Example 71, (1aS,3aR,6bR)-1-Oxo-5-(pyrimidin-2-ylsulphanylmethyl)-1a,2,3,3a,4,6b-hexahydro-1H-2,6a-diazacyclobut[cd]indene-6-carboxylic acid trifluoroacetate] | – | – | 8 µg/mL | 2 µg/mL
11 | NC(=O)CNC(=O)Cn1nnnc1SCC1=C(C(=O)O)N2C(=O)[C@H]3NC[C@@H](O1)[C@H]32 [29(i), (1aS,3aR,6bS)-5-(1-(Carbamoylmethyl-carbamoylmethyl)-1H-tetrazol-5-ylsulphanylmethyl)-1-oxo-1,1a,2,3,3a,6b-hexahydro-4-oxa-2,6a-diazacyclobut[cd]indene-6-carboxylic acid] | – | – | 8 µg/mL (≈ 18.9 µM) | 8 µg/mL
12 | NC(=O)Cn1nnnc1SCC1=C(C(=O)O)N2C(=O)[C@@H]3[C@H]2[C@H](C1)CN3C(=O)C(F)(F)F [70(b), (1aS,3aR,6bR)-5-(1-Carbamoylmethyl-1H-tetrazol-5-ylsulphanylmethyl)-2-trifluoroacetyl-1-oxo-1a,2,3,3a,4,6b-hexahydro-1H-2,6a-diazacyclobut[cd]indene-6-carboxylic acid sodium salt] | – | – | 1 µg/mL | 0.5 µg/mL
13 | O=C(Cn1nnnc1SCC1=C(C(=O)O)N2C(=O)[C@H]3NC[C@@H](C1)[C@H]32)NCCc1ccccc1 [Example 79, (1aS,3aR,6bR)-1-Oxo-5-[1-(phenethylcarbamoylmethyl)-1H-tetrazol-5-ylsulphanylmethyl]-1a,2,3,3a,4,6b-hexahydro-1H-2,6a-diazacyclobut[cd]indene-6-carboxylic acid trifluoroacetate] | – | – | 2 µg/mL | 4 µg/mL
14 | CC(=O)N1C[C@H]2CC(CSc3nc(-c4cccnc4)cs3)=C(C(=O)O)N3C(=O)[C@@H]1[C@@H]23 [67(a), (1aS,3aR,6bR)-2-Acetyl-1-oxo-5-(4-pyridin-3-yl-thiazol-2-ylsulphanylmethyl)-1a,2,3,3a,4,6b-hexahydro-1H-2,6a-diazacyclobut[cd]indene-6-carboxylic acid sodium salt] | – | – | 0.5 µg/mL | 8 µg/mL
15 | C=CC1=C(C(=O)O)N2C(=O)[C@@H]3[C@H]2[C@H](C1)CN3C(=O)Nc1ccc(C(N)=O)cc1 [46(b), (1aS,3aR,6bR)-2-(4-Carbamoyl-phenylcarbamoyl)-1-oxo-5-vinyl-1a,2,3,3a,4,6b-hexahydro-1H-2,6a-diazacyclobut[cd]indene-6-carboxylic acid sodium salt] | – | – | > 32 µg/mL | 0.5 µg/mL
